Biological target: T1, rShGST (recombinant Schistoma japonicum GST) (Schistosoma japonicum, UniProt P08515)
T1 construct: GST expressed from the empty vector pGEX-6P-1 (vector-encoded C-terminal linker), E. coli BL21(DE3), Glutathione Sepharose
Assay: GST activity with CDNB, absorbance at […] nm
Assay type: biochemical
Conditions: 100 µM inhibitor; 1 mM CDNB, 1 mM GSH, 0.1 M phosphate pH 6.5

T1 sequence (P08515 2-218): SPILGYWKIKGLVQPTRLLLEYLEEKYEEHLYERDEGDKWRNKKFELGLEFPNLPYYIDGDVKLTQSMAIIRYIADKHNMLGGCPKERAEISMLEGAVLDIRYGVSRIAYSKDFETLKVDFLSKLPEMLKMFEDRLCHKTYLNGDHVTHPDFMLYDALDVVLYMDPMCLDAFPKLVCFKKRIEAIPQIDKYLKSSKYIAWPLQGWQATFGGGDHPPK

C=C(CC)C(=O)c1ccc(OCC(=O)O)c(Cl)c1Cl [ethacrynic acid]
GST activity, % of control at 100 μM: Ethacrynic acid strongly inhibited the GST activity of recombinant Schistoma japonicum GST (rShGST)
